Source: patent US5589337A (priority 1995, dated 1996)
Where a name gives a salt, the structure may show the parent alone. Read-outs that look alike come from different tables or passages of the source.

Assays:
in vitro [1] = details: clpb promoter-lacz e. coli
zwf promoter = experiment: zwf promoter-lacZ induction (preferred kit, β-galactosidase); details: Escherichia coli, read-out: Fold Induction, zwf
[2] = micF promoter-lacZ induction (preferred kit, β-galactosidase); details: promoter-lacz bacterial strain
ada gene = details: cited from earlier work
ada promoter = experiment: ada promoter-lacZ induction (preferred kit, β-galactosidase); details: MMS 470 μM to 1880 μM; FIG. 9
nfo promoter = experiment: nfo promoter-controlled β-galactosidase expression (Example 7)
dinD promoter [3] = experiment: dinD promoter-controlled β-galactosidase expression (Example 7); details: for dinD controlled β-galactosidase expression: 5 μg/ml, 0 min 321
adaA promoter = experiment: adaA (ada-alkA) promoter-controlled β-galactosidase expression (Example 7)
rdc promoter = details: cited from earlier work
merR promoter = experiment: merR promoter-lacZ induction (preferred kit, β-galactosidase)
gsh gene = details: cited from earlier work
sodA gene = details: cited from earlier work
dinD promoter [4] = details: cited from earlier work
fepB promoter = experiment: fepB promoter-controlled β-galactosidase expression (Example 7); details: 2,2'-dipyridyl 0-160 μM; FIG. 6
clpB promoter = details: 0.32 mg/ml
micF promoter = experiment: micF promoter-lacZ induction (preferred kit, β-galactosidase)
micF gene = details: cited from earlier work
[5] = soi28 promoter-lacZ induction (preferred kit, β-galactosidase); details: promoter-lacz bacterial strain
[6] = groE promoter-lacZ induction (preferred kit, β-galactosidase); details: groe promoter-lacz e. coli
dinD promoter [7] = system: dinD promoter
soi28 promoter [8] = experiment: soi28 promoter-lacZ induction (preferred kit, β-galactosidase)
proU promoter = experiment: proU promoter-controlled β-galactosidase expression (Example 7); details: NaCl 0-0.8M; FIG. 5
soi17 promoter = experiment: soi17 promoter-controlled β-galactosidase expression (Example 7); details: NaCl 0-0.8M; FIG. 5
in vitro [9] = details: dind promoter-lacz e. coli
[10] = nfo promoter-lacZ induction (preferred kit, β-galactosidase); details: nfo promoter-lacz e. coli
topA promoter = experiment: topA promoter-lacZ induction (preferred kit, β-galactosidase); details: Escherichia coli, read-out: Fold Induction, topA
nfo gene = details: cited from earlier work
zwf gene = details: cited from earlier work
[11] = system: mutant strains of Salmonella typhimurium; details: cited from earlier work
soi28 promoter [12] = experiment: soi28 promoter-controlled β-galactosidase expression (Example 7)
katG gene = details: cited from earlier work
ahp gene = details: cited from earlier work
[13] = katG promoter-lacZ induction (preferred kit, β-galactosidase); details: promoter-lacz bacterial strain
ndh promoter = experiment: ndh promoter-controlled β-galactosidase expression (Example 7)
DNA strand breaks = details: cited from earlier work
[14] = 2,2'-dipyridyl 0-160 μM, FIG. 6

CN(C)C=O [N,N Dimethyl formamide]
fold induction (in vitro [1]): 2.5
fold induction at 0.8 % (zwf promoter): 1.5
fold induction [2]: 3.3

COS(C)(=O)=O [Methyl Methane-sulfonate, methyl methanesulfonate]
ada gene expression induction (ada gene): induce ada gene expression
induction of ada promoter (ada promoter): specifically induces the ada promoter
induction of nfo promoter (oxygen-dependent damage) (nfo promoter; MMS 0-40 nM, FIG. 3): not oxygen-dependent (nfo promoter)
induction of dinD promoter (strand breaks) (dinD promoter [3]; MMS 0-40 nM, FIG. 3): not via stand breaks (dinD promoter)
induction of adaA promoter (DNA alkylation) (adaA promoter; MMS 0-40 nM, FIG. 3): induction of the adaA promoter

OCC(O)CS (stereo not drawn) [thioglycerol]
rdc promoter induction (rdc promoter): induced

[Cl][Hg][Cl] [Mercuric chloride]
Fold Induction, merR (merR promoter; 2 ng/ml): 27 fold
induction of merR promoter (merR promoter; mercuric chloride, FIG. 10): specifically induces the merR promoter

CCN1C(=O)C=CC1=O [N-ethylmaleimide]
gsh gene induction (gsh gene): induced

CN(C)c1ccc2nc3ccc(=[N+](C)C)cc-3sc2c1 [methylene blue]
sodA gene induction (sodA gene): strongly induced

bleomycin
dinD induction (dinD promoter [4]): Typical inducers of dinD

c1ccc(-c2ccccn2)nc1 [2,2'-dipyridyl]
effect on DNA replication (sfiA promoter) (sfiA promoter; [14]): no effect on DNA replication (sfiA promoter)
induction of sodA promoter (superoxide formation) (sodA promoter; [14]): sodA induction
sodA gene induction (sodA gene): also induced
induction of fepB promoter (chelating metals) (fepB promoter): fepB induction

O=[N+]([O-])c1ccc(F)c([N+](=O)[O-])c1 [Dinitrofluoro benzene]
Fold Induction, clpB (clpB promoter): 2 fold
Fold Induction, micF (micF promoter; 0.32 mg/ml): 3.2 fold

COC1=C(N)C(=O)c2nc(-c3nc(C(=O)O)c(C)c(-c4ccc(OC)c(OC)c4O)c3N)ccc2C1=O [streptonigrin]
sodA gene induction (sodA gene): strongly induced

CO[C@@]12[C@H](COC(N)=O)C3=C(C(=O)C(C)=C(N)C3=O)N1C[C@@H]1N[C@@H]12 [Mitomycin C]
dinD induction (dinD promoter [4]): Typical inducers of dinD
dinD controlled β-galactosidase expression (dinD promoter [3]; 15 min exposure): 350
dinD controlled β-galactosidase expression (dinD promoter [3]; 25 min exposure): 1036
dinD controlled β-galactosidase expression (dinD promoter [3]; 35 min exposure): 811
dinD controlled β-galactosidase expression (dinD promoter [3]; 55 min exposure): 1204
fold induction at 5 µg/mL (dinD promoter [3]; Escherichia coli, 55 min, read-out: dinD promoter induction): ~4

CCO [Ethanol]
micF gene induction (micF gene): also induced
fold induction [2]: 2.5
fold induction [5]: 1.7

c1cnc2c(c1)ccc1cccnc12 [1, 10-phenanthroline]
sodA gene induction (sodA gene): also induced

Oc1ccccc1 [Phenol]
fold induction (in vitro [1]): 1.5
fold induction [6]: 2.2

O=[N+]([O-])c1cc[n+]([O-])c2ccccc12 [4-NQO, 4-nitroquinoline oxide]
induction of dinD promoter (dinD promoter [7]; 4-NQO, FIG. 11): causes induction of the dinD promoter
induction of sfiA promoter (sfiA promoter; 4-NQO 0-100 picomolar, FIG. 2): induction of the sfiA and dinD promoters
dinD induction (dinD promoter [4]): Typical inducers of dinD
induction of soi28 promoter (soi28 promoter [8]; 4-NQO, FIG. 11): to a lesser extent
induction of nfo promoter (nfo promoter; 4-NQO 0-100 picomolar, FIG. 2): minor, but dose-dependent induction
induction of dinD promoter (dinD promoter [3]; 4-NQO 0-100 picomolar, FIG. 2): induction of the sfiA and dinD promoters
induction of adaA promoter (DNA alkylation) (adaA promoter; 4-NQO 0-100 picomolar, FIG. 2): not DNA alkylation (adaA promoter)

ClC(Cl)Cl [Chloroform]
fold induction (in vitro [1]): 4.5
fold induction [5]: 2

[Cl-].[Na+] [NaCl, sodium chloride]
induction of sodA promoter (superoxide formation) (sodA promoter; NaCl 0-0.8M, FIG. 5): no induction of sodA or soi17
induction of proU promoter (proU promoter): induces the proU promoter
induction of soi17 promoter (superoxide formation) (soi17 promoter): no induction of sodA or soi17

C[S+](C)[O-] [DMSO]
fold induction (in vitro [1]): 2
fold induction (in vitro [9]): 2.2
fold induction [10]: 1.6
fold induction at 25 % (topA promoter): 1.7

CCCO [1-propanol]
fold induction (in vitro [1]): 5.6
fold induction [2]: 4
fold induction [6]: 1.5

CC1=CC(=O)c2ccccc2C1=O [menadione]
sodA gene induction (sodA gene): strongly induced
nfo induction (nfo gene): specifically induced

nitric oxide
zwf gene induction (zwf gene): induced

CC(C)(C)c1cc(O)ccc1O [Tert-butyl hydroquinone]
fold induction at 2000 µM (in vitro [1]): 2.8
fold induction at 2000 µM [2]: 2.6

CC1=CC(=O)c2c(O)cccc2C1=O [plumbagin]
response in Ames Assay [11]: neither compound produces a positive response
sodA gene induction (sodA gene): strongly induced
induction of soi28 promoter (soi28 promoter [12]; plumbagin 0-160 μM, FIG. 4): cause induction of the soi28 promoter

OO [Hydrogen peroxide]
katG gene induction (katG gene): can be induced
ahp gene induction (ahp gene): induced
dinD induction (dinD promoter [4]): does not respond to oxidative DNA damage, except when cells are exposed to extremely high concentrations of H2 O2
fold induction (in vitro [9]): 3
fold induction [13]: 2

C[n+]1ccc(-c2cc[n+](C)cc2)cc1 [Paraquat]
effect on dinD promoter (dinD promoter [7]): apparent inhibition
response in Ames Assay [11]: neither compound produces a positive response
sodA gene induction (sodA gene): strongly induced
micF gene induction (micF gene): induced
nfo induction (nfo gene): specifically induced
fold induction at 8000 µg/mL (zwf promoter): 3
induction of micF promoter (micF promoter): specific induction of the soi28 and micF promoters
effect on merR promoter (merR promoter): apparent inhibition
induction of soi28 promoter (soi28 promoter [8]): specific induction of the soi28 and micF promoters
induction of ndh promoter (ndh promoter): negligible effect
ndh induction, galactosidase activity (ndh promoter; 50 μM, 0 μM control 464): 980 units
induction of nfo promoter (nfo promoter): induced the nfo promoter
nfo induction, galactosidase activity (nfo promoter; 50 μM, 0 μM control 2952): 8100 units
induction of soi28 promoter (soi28 promoter [12]): cause induction of the soi28 promoter
soi28 induction, galactosidase activity (soi28 promoter [12]; 50 μM, 0 μM control 670): 2370 units

CCOS(C)(=O)=O [EMS, ethlymethanosulfate]
ada gene expression induction (ada gene): induce ada gene expression

O=C1O[C@H]([C@@H](O)CO)C(O)=C1O [Ascorbic acid]
number of hydrogen peroxide induced DNA strand breaks (DNA strand breaks): reduce the number of hydrogen peroxide induced DNA strand breaks

C[n+]1c2ccccc2nc2ccccc21 [phenazine methyl sulfate]
sodA gene induction (sodA gene): strongly induced

O=C(O)CN(CCN(CC(=O)O)CC(=O)O)CC(=O)O [EDTA]
sodA gene induction (sodA gene): also induced
